Each compound was assayed on Plasmodium falciparum (assay: GSK_TCMDC: Inhibition of Plasmodium falciparum 3D7 in whole erythrocytes, using parasite LDH activity as an index of growth.). Conditions: not given.
Type: functional, organism-based

SMILES	XC50 [nM]
Cc1ccc(CC(C)NC[C@H](O)c2cccc(Cl)c2)cc1 (stereo partly drawn)	927

Same assay, conditions: Plasmodium falciparum, 3D7

SMILES	XC50 [nM]
COc1ccc2nccc([C@@H](O)CN3CCC(NC(=O)C(c4cc5ccccc5s4)N4CC(C)OC(C)C4)CC3)c2c1 (stereo partly drawn)	981
Cc1cc(N2CCCC2)nc(Nc2ccc(NC(=O)c3ccccc3C)cc2)n1	724
CC(C)NCC(O)COc1ccc(Cc2ccc(OCC(O)CNC(C)C)cc2)cc1 (stereo not drawn)	654
Cc1cnc(NCC2CCCCC2)nc1N[C@@H](CC(C)C)C(=O)Nc1ccccc1	869
Cc1cc(Nc2ccncc2)n2nc(C)c(-c3ccc(Cl)cc3)c2n1	157
O=C1CCCN1CCCNCc1ccc(-c2cccc(-c3nc4cc(C(F)(F)F)ccc4[nH]3)c2)cc1	191
CC(NC(=O)c1ccc(O)c(-c2ccc(Cl)c(Cl)c2)c1)C(=O)NCCN1CCOCC1 (stereo not drawn)	959
OC(Cn1ccnc1)(c1ccc(Cl)cc1Cl)C1CCCCC1 (stereo not drawn)	984
Nc1ccc(-c2ccc3ccnc(N)c3c2)cc1	682
CCN(CC)c1nc(Nc2cc(C)ccc2C)nc(Nc2ccccc2O)n1	641
O=C(Nc1ccc(C(F)(F)F)cc1)N[C@H]1CCN(CCCCCNC(=O)C2CC2c2ccc(Cl)c(Cl)c2)C1 (stereo partly drawn)	1100
CC(C)NCc1ccc(-c2cccc(-c3nc4cc(F)ccc4[nH]3)c2)cc1	405
CCOc1cc(C(C)C)ccc1N1CCN(CCCCNC(=O)c2ccc(NC(=O)c3ccc(Cl)cc3)cc2)CC1	416
CC(C)c1cc2c(cc1O)C(Cc1ccccc1Cl)N(C)CC2 (stereo not drawn)	732
CCCCCCCCCc1c(C)[nH]c2ccccc2c1=O	163
CC(C)CCn1c(Sc2ccc(C#N)c([N+](=O)[O-])c2)nnc1-c1ccccc1Cl	1030
N[C@@H](CCNC1CCN(c2cccc(C(F)(F)F)c2)CC1)Cc1ccc(F)c(F)c1	1290
O=C(NCCc1ccccc1)N(Cc1ccccc1-c1cccc(CNCCc2ccccc2)c1)C1CCN(Cc2ccccc2)CC1	625
CC[C@H](C)CNC(=O)c1ccnc(-c2cccc(CN3CCC(N4CCCC4)CC3)c2)c1	851
CCN(CCCN1CCCCC1)c1cc(C)nc(Nc2ccc(C)cc2C)n1	351
COc1ccc(C2CC(c3cccs3)=NN2C(=O)c2ccccc2)cc1OC (stereo not drawn)	661
COc1c(C2CCN(CCCCNC(=O)c3ccc(-c4ccc(Cl)cc4)c(OCCN(C)C)c3)CC2)ccc2c1CCCC2	190
COCCN(C)CCCOc1cc2c(cc1OC)ncn2-c1cc(OCc2ccccc2C(F)(F)F)c(C(N)=O)s1	710
Cc1sc(CNCCCNc2cc(=O)c3ccccc3[nH]2)cc1Br	764
c1cncc(CN2CCCN(c3ccc4c(c3)CCN(Cc3ccc(-c5ncc[nH]5)cc3)CC4)CC2)c1	747

SMILES	XC50 [nM]
N=C(N)CCN(Cc1ccccc1)c1ccc(Cl)cc1	257
Clc1ccc(-c2cc(-c3csc(NCCN4CCCCC4)n3)on2)cc1	989
COc1cccc(C(=O)NC(NC(=S)Nc2ccc(OC)cc2[N+](=O)[O-])C(Cl)(Cl)Cl)c1 (stereo not drawn)	758
Cc1cc(N[C@@H](Cc2ccccc2)C(=O)NCc2cccs2)nc(NCCc2cccnc2)n1	1010
Cc1cc(N(C)C)nc(Nc2ccc(NC(=O)c3ccccc3C)cc2)n1	1130
Cc1cccc2nc(-c3ccc(-c4ccc(CNCC(C)C)cc4)cc3)[nH]c12	405
Cc1cc(C)c(NC(=O)N2CCCN(CCCCCNC(=O)/C=C/c3ccc(Cl)c(Cl)c3)CC2)c(C)c1	968
Cc1cc(CNC(c2ccccc2)C2CCC2)cc(C)c1O (stereo not drawn)	890
O=C(/C=C/c1ccc(Cl)c(Cl)c1)NCCCCCN1CCC(NC(=S)Nc2ccc(Cl)cc2Cl)CC1	738
CC[C@H]1CN2CC[C@@H]1C[C@H]2[C@H](O)c1cc(N2CCOCC2)nc2ccc(OC)cc12	118
N#Cc1ccc(-c2ccc(C(=O)NC3CCN(CCN4CCC(c5cn(CCOC6CCCCO6)c6ccccc56)CC4)CC3)cc2)cc1 (stereo not drawn)	599
CN1CCN(CC(O)CNC(=O)Nc2ccc(Br)cc2)CC1 (stereo not drawn)	149
Cc1ccc([N+](=O)[O-])cc1NC(=O)N(CC(O)c1ccccc1)C1CCCCC1 (stereo not drawn)	730
COc1ccc(-c2cccc(NC(=O)c3ccc(C#N)cc3)c2)cc1CNC(C)C	808
N#Cc1ccc(N2CCN(Cc3ccc(-c4ccc(-c5nc6cc(F)ccc6[nH]5)s4)cc3)CC2)nc1	854
CC(O)C1CCCCN1C(=O)c1cccc(-c2cccc(-c3nc4cc(C(F)(F)F)ccc4[nH]3)c2)c1 (stereo not drawn)	280
Oc1ccc(CCCNc2nc(NCc3cccc4ccccc34)nc(N3CCCNCC3)n2)cc1	987
O=C(C=Cc1ccccc1O)N1CCC(CN2CCC(c3c[nH]c4ccccc34)CC2)CC1	961
FC(F)(F)c1ccc2c(NCCc3ccccc3)ccnc2c1	1270
N#CC1(CCCNCCc2ccc(O)cc2)CCCc2c(O)cccc21 (stereo not drawn)	763
O=C(c1cc(OC(F)(F)F)ccc1O)N1CCN(c2ccccc2)CC1	1050
CCCc1ccc(S(=O)(=O)NC2CCN(C(=O)Nc3ccc(I)cc3)CC2)cc1	872
CC[C@H](N/C(=N\c1cccc(Cl)c1Cl)Nc1ccc(C#N)cc1O)c1ccccc1	815
CCc1c(CCNCCCCCNCCc2ccc(OC)c(OC)c2CC)ccc(OC)c1OC	1110
N=c1c2c(n(Cc3ccc(Cl)cc3Cl)c3c1CCC3)CCCC2	350

SMILES	XC50 [nM]
O=C(CSc1nn(-c2ccccc2)c(=S)s1)c1c[nH]c2ccccc12	1090
O=C(Nc1cc(C(F)(F)F)cc(C(F)(F)F)c1)Nc1cc(C(F)(F)F)cc(C(F)(F)F)c1	727
CS(=O)(=O)N1CC2(CCN(CCC(NC(=O)NCc3ccccc3Cl)c3ccc(Cl)c(Cl)c3)CC2)c2ccccc21 (stereo not drawn)	1110
O=C(NC1CCN(c2ccnc3cc(Cl)ccc23)C1)c1ccc(F)cc1F (stereo not drawn)	372
COc1ccccc1CNc1ncc(-c2ccsc2)c(-c2nccs2)n1	333
CC(C)C[C@H]1c2[nH]c3ccc(Cl)cc3c2CCN1C(=O)CCc1ccccc1	885
Cc1ccc2[nH]c(-c3ccccc3)cc(=NN=Cc3cccnc3)c2c1	691
COc1cc(C(=O)Nc2nc3ccccc3[nH]2)ccc1OCC(=O)Nc1cccc(C(F)(F)F)c1	738
CCOc1cc(C)ccc1C1CCN(CCCCNC(=O)c2ccc(-c3ccc(Cl)cn3)cc2)CC1	1610
CCCN(CCC)CCCOc1ccc(C(=O)c2c(-c3ccc(OCCCN(CCC)CCC)cc3)oc3ccc(Cl)cc23)cc1	340
CCn1c(Sc2ccc(C#N)c([N+](=O)[O-])c2)nnc1-c1cc(OC)cc(OC)c1	565
Cc1cc(=NN=Cc2ccccc2Cl)c2ccccc2[nH]1	904
COc1ccc(CCNC(=O)c2ccc(-n3cc(NC(=O)c4cccnc4)cn3)cc2)cc1OC	1070
CCc1cc(CNC2CCN(CCc3c(F)cnc4ccc(OC)nc34)CC2)cc2c1OCCO2	264
NCCNc1ccc([N+](=O)[O-])cc1C(=O)Nc1cccc(Cl)c1	1260
CCn1cc(C(=O)O)c(=O)c2cc(F)c(N3CCN(S(=O)(=O)c4ccc(N)cc4)CC3)cc21	922
CC(C)CCN1CCC(Oc2ccc(NC(=O)c3cccs3)cc2Cl)CC1	341
N#Cc1ccc(N[C@@H](CC2CCCCC2)C(=O)Nc2ccc(-c3ccccc3)cc2)c2ccccc12	597
COc1ccc2nccc([C@@H](O)CN3CCC(NC(=O)C(=O)c4c[nH]c5c(C)cccc45)CC3)c2c1	307
CCC(ON1C(N)=NC(N)=NC1(C)C)c1ccc(Cl)cc1 (stereo not drawn)	3.2
O=S(=O)(NC1CCN(c2ccnc3cc(Cl)ccc23)C1)c1ccc(C(F)(F)F)cc1 (stereo not drawn)	298
CC1=C(C(=O)Nc2cc3cn[nH]c3cc2F)C(c2cccc(O)c2F)CC(=O)N1 (stereo not drawn)	629
CC(C)NC(=O)c1cccc(-c2ccc(OCCN3CCCC3c3cc4ccccc4[nH]3)cc2)c1 (stereo not drawn)	958
Cc1ccc(C)c2c1[nH]c1ccc(C3=NCCN3)cc12	497
CCC1(CC)CN(c2ccccc2)c2ccc(O)cc2S(=O)(=O)C1CC(C)C (stereo not drawn)	402

SMILES	XC50 [nM]
CCc1nc(N)nc(N)c1-c1ccccc1	1180
c1ccc(COc2ccc(Nc3ncnc4cnc(-c5ccc(CNc6cccnc6)o5)cc34)cc2)cc1	857
CC(C)CNc1c2c(nc3cnn(-c4c5c(nc6cn[nH]c46)CCCC5)c13)CCCC2	795
CN1CCCN(Cc2cccc(-c3ccc(NC(=O)c4ccc(Cl)cc4)cc3)c2)CC1	720
Oc1ccc(Nc2nc(NCC3CCCO3)c3ccccc3n2)cc1 (stereo not drawn)	806
COc1c(F)ccc2ncc(Cl)c(CCN3CCC(NCc4ccc5c(n4)NC(=O)CS5)CC3)c12	544
Fc1ccc2[nH]c(-c3ccc(-c4ccc(CN5CCN(c6ccncc6)CC5)cc4)cc3)nc2c1	251
Cc1cccc2nc(-c3cccc(-c4cccc(NC(=O)c5cccnc5)c4)c3)[nH]c12	228
CC[C@H]1CN2CC[C@@H]1C[C@H]2[C@H](O)c1cc(-c2ccccc2)nc2ccc(O)cc12	189
CN1CCN(CCCN(Cc2cccc(-c3cccc(CNCCc4ccccc4)c3)c2)C(=O)Nc2ccccc2)CC1	579
OCCOCn1cnc2cnc(N[C@H]3OC[C@H](O)[C@@H](O)[C@@H]3O)nc21	1640
O=S(=O)(NCCN1CCCC1)c1ccc(-c2cccc(CNCc3ccc(F)cc3)c2)s1	764
Fc1ccc2[nH]c(-c3cccc(-c4ccc(CNCc5cnn(-c6ccccc6)n5)cc4)c3)nc2c1	917
CC(C)C[C@H]1C(=O)N[C@H](C2Cc3ccccc3C2)C(=O)N1[C@@H](C(=O)Nc1ccccc1OCc1ccccc1)c1ccc(F)cc1F	1020
O=C(Nc1cccc(CCNCc2ccccc2)c1)Nc1cccc2ccccc12	729
O=c1n[n+](C2CCCCC2)[n-]o1	934
C=C[C@H]1CN(CCCCCCC)CC[C@H]1C[C@@H](Cc1ccnc2ccc(OC)cc12)OC(=O)[C@](OC)(c1ccccc1)C(F)(F)F	876
CO/C(=C\C=C\c1cc2cc(Cl)c(Cl)cc2[nH]1)C(=O)NCCCN1CCN(c2cccc(OCC(=O)Nc3cccc(C(=O)c4ccccc4)c3)c2)CC1	686
Cc1ccc(Oc2ncccc2C(=O)Nc2cccc3cccnc23)c(C)c1	225
CCCC(=O)c1cnc2c(OCCCc3c[nH]cn3)cccc2c1Nc1c(C)cccc1C	338
COc1ccc(CNCc2ccc(F)cc2)cc1-c1ccc(S(=O)(=O)NCCN2CCCC2)s1	706
COC(=O)c1ccc2nc(-c3cc(OC)c(O)c(C(=O)NC4CCN(Cc5ccccc5)CC4)c3)[nH]c2c1	1180
